Results published in patent publication EP0080940B1, “Derivatives of 2-phenyl-morpholine and medical compositions” (LABORATOIRE L. LAFON Société anonyme dite:, priority 1981, dated 1983).

What was measured:
Assay type in all cases: in vivo
[1] = system: souris; experiment: Action on rectal temperature
Description: On a résumé ci-après les résultats des essais qui ont été entrepris chez l'animal avec le CRL 40914, ce produit étant administré, sauf indications contraires, en solution dans l'eau (à pH 5) par voie intrapéritonéale sous un volume de 20 ml/kg chez la souris mâle et de 5 ml/kg chez le rat mâle.
Des lots de 6 souris reçoivent le CRL 40914; la température rectale est notée toutes les 30 min.

[2] = system: rats; experiment: Interaction with apomorphine, rat; conditions: apomorphine 0,5 mg/kg s.c.
Description: Le CRL 40914 est administré aux rats une demi-heure avant l'injection sous-cutanée de 0,5 mg/kg d'apomorphine.
(§1) On a résumé ci-après les résultats des essais qui ont été entrepris chez l'animal avec le CRL 40915, les modalités opératoires étant celles données ci-dessus pour le CR L 40914.

[3] = system: rats; experiment: Interaction with amphetamine; conditions: rat, 8 mg/kg et 32 mg/kg i.p., amphétamine 2 mg/kg i.p.
Description: L'amphétamine (2 mg/kg) est injectée par voie intrapéritonéale à des lots de 12 rats, une demi-heure après l'administration de CRL 40914.
as §1

[4] = system: souris; experiment: Interaction with reserpine; conditions: 4 mg/kg mais surtout 16 mg/kg et 64 mg/kg i.p., 4 h après réserpine 2,5 mg/kg i.p.
Description: Quatre heures après l'injection intrapéritonéale de 2,5 mg/kg de réserpine, des lots de 6 souris reçoivent le CRL 40914.
as §1

[5] = system: souris; experiment: Action on spontaneous motility (actimeter)
Description: Une demi-heure après avoir reçu le CRL 40914, des souris sont placées en actimètre où leur motilité est enregistrée pendant 30 min.
as §1

[6] = system: souris; experiment: Asphyxic anoxia (gallamine triethiodide)
Description: Des lots de 10 souris reçoivent le CRL 40914 une demi-heure avant l'administration intrapéritonéale de 32 mg/kg de triiodoéthylate de gallamine (agent curarisant de référence).
as §1

[7] = system: souris mâle; experiment: Action on intergroup aggressiveness
Description: Cet effet pourrait résulter de la sédation qui se manifeste à faible dose (4 mg/kg) et de l'excitation motrice qui se manifeste à forte dose (64 mg/kg).

[8] = souris, 0,25 mg/kg, 1 mg/kg, 4 mg/kg et 16 mg/kg i.p.

CCN1CCOC(c2ccccc2)C1 (stereo not shown) [CRL 40914, Chlorhydratede 2-phényl-4-éthyl-morpholine]
durée de l'hypothermie [1, 8]: 90 à 120 min | température rectale [1, 8]: hypothermie maximale après 30 min | température rectale ([1]; souris, 64 mg/kg i.p.): hyperthermie qui apparaît à 30 min et qui fait ensuite place à une hypothermie modérée | stéréotypies induites par l'apomorphine ([2]; rat, 0,5 mg/kg, 2 mg/kg et 8 mg/kg i.p.): semble diminuer modérément l'intensité des téréotypies induites par l'apomorphine | stéréotypies induites par l'apomorphine ([2]; rat, 32 mg/kg i.p.): potentialisation discrète des stéréotypies | stéréotypies amphétaminiques [3]: diminue nettement l'intensité des téréotypies amphétaminiques | hypothermie et ptosis réserpiniques [4]: s'oppose à l'hypothermie et au ptosis réserpinique | activité motrice spontanée ([5]; 64 mg/kg i.p.): hyperactivité nette | activité motrice spontanée ([5]; dès 0,125 mg/kg i.p., maximum entre 0,5 mg/kg et 16 mg/kg): diminution de l'activité motrice spontanée | apparition des convulsions et de la mort (anoxie asphyxique) ([6]; 1 mg/kg, 4 mg/kg et 16 mg/kg i.p., triiodoéthylate de gallamine 32 mg/kg i.p.): retard d'apparition des convulsions et, à un degré moindre, de la mort | apparition des convulsions et de la mort (anoxie asphyxique) ([6]; dose plus élevée (above 16 mg/kg) i.p.): cet effet disparaît | combats (agressivité intergroupe) ([7]; 4 mg/kg): supprime les combats entre les souris de 2 groupes différents | durée de contact entre les souris (agressivité intergroupe) ([7]; 64 mg/kg): diminue la durée de contact entre les souris
